Assay results taken from ChEMBL document CHEMBL4334471, “Discovery of 1,8-disubstituted-[1,2,3]triazolo[4,5-c]quinoline derivatives as a new class of Hippo signaling pathway inhibitors” (Bioorg Med Chem Lett, 2019).

Tests used:
[1] = test system: Serine/threonine-protein kinase N1 (Homo sapiens), Q16512 [V901I]; assay: Inhibition of recombinant human PRK1 V901I mutant (498 to end residues) assessed as residual activity at 10 uM using KKLNRTLSFAEPG as substrate incubated for 40 mins in presence of [gamma33P]ATP by scintillation counting based radiometry assay relative to control
[2] = molecular target: Casein kinase I isoform gamma-2 (Homo sapiens) (UniProt P78368); assay: Inhibition of recombinant human CK1gamma2 (18 to end residues) assessed as residual activity at 10 uM using KRRRALS(p)VASLPGL as substrate incubated for 40 mins in presence of [gamma-33ATP] by scintillation counting based radiometry assay relative to control
[3] = molecular target: Receptor-interacting serine/threonine-protein kinase 1 (Homo sapiens) (UniProt Q13546); assay: Inhibition of recombinant human RIPK1 (8 to 322 residues) assessed as residual activity at 10 uM using myelin basic protein as substrate incubated for 40 mins in presence of [gamma33P]ATP by scintillation counting based radiometry assay relative to control
Receptor-interacting serine/threonine-protein kinase 1 (Homo sapiens), sequence (Q13546 whole entry, the tested form may be a part): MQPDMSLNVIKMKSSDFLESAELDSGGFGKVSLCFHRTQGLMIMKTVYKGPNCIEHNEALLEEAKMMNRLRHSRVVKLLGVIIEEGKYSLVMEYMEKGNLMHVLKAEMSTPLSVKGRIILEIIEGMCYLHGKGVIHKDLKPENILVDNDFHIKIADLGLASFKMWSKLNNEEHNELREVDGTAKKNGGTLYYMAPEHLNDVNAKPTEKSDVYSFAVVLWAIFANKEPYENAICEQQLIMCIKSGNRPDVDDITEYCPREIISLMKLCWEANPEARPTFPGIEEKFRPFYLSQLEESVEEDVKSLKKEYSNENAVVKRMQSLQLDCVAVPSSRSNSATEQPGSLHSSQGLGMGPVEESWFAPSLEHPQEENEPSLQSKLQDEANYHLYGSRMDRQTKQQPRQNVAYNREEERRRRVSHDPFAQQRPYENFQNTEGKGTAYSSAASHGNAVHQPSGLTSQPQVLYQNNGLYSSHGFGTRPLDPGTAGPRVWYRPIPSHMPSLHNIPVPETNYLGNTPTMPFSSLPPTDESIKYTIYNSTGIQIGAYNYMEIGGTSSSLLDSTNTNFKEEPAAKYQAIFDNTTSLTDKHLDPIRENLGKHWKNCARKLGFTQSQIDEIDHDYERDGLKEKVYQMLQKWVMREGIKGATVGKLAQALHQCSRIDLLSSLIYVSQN

[4] = molecular target: Serine/threonine-protein kinase DCLK2 (Homo sapiens) (UniProt Q8N568); assay: Inhibition of recombinant human DCAMKL2 (376 to end residues) assessed as residual activity at 10 uM using KKLNRTLSFAEPG as substrate at 40 mins in presence of [gamma-33ATP] by scintillation counting based radiometry assay relative to control
[5] = molecular target: Serine/threonine-protein kinase VRK2 (Homo sapiens) (UniProt Q86Y07); assay: Inhibition of recombinant human VRK2 (1 to 336 residues) assessed as residual activity at 10 uM using casein as substrate incubated for 40 mins in presence of [gamma33P]ATP by scintillation counting based radiometry assay relative to control
Serine/threonine-protein kinase VRK2 (Homo sapiens), sequence (Q86Y07 whole entry, the tested form may be a part): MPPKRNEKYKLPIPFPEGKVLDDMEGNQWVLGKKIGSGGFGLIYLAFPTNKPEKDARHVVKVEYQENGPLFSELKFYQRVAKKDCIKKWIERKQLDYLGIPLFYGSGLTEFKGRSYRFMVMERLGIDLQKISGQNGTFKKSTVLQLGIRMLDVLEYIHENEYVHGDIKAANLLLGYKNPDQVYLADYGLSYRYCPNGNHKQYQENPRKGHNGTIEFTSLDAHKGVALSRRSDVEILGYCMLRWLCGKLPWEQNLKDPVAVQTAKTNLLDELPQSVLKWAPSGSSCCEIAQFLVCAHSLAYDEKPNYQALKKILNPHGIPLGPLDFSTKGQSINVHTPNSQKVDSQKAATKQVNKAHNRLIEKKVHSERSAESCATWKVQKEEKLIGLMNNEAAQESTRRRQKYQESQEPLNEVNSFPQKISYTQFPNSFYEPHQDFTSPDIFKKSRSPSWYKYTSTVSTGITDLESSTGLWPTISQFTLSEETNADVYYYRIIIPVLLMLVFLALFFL

[6] = molecular target: Death-associated protein kinase 2 (Homo sapiens) (UniProt Q9UIK4); assay: Inhibition of recombinant full length human DAPK2 assessed as residual activity at 10 uM Calmodulin as substrate incubated 40 mins in presence of [gamma-33ATP] by scintillation counting based radiometry assay relative to control
Death-associated protein kinase 2 (Homo sapiens), sequence (Q9UIK4 whole entry, looked up, the tested form may be a part): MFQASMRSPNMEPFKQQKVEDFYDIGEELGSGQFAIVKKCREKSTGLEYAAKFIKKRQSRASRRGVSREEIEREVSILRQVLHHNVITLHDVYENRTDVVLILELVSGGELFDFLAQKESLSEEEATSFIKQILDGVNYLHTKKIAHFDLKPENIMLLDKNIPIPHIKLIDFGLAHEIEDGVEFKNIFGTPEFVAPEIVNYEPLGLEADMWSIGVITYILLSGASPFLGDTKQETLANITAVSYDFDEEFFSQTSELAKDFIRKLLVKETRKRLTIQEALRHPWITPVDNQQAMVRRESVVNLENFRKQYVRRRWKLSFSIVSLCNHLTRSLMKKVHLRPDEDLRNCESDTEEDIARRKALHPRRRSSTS

[7] = molecular target: Ephrin type-A receptor 8 (Homo sapiens) (UniProt P29322); assay: Inhibition of recombinant human EphA8 (615 to 911 residues) assessed as residual activity at 10 uM using KTFCGTPEYLAPEVRREPRILSEEEQEMFRDFDYIADWC as substrate at 40 mins in presence of [gamma-33ATP] by scintillation counting based radiometry assay relative to control
Ephrin type-A receptor 8 (Homo sapiens), sequence (P29322 whole entry, the tested form may be a part): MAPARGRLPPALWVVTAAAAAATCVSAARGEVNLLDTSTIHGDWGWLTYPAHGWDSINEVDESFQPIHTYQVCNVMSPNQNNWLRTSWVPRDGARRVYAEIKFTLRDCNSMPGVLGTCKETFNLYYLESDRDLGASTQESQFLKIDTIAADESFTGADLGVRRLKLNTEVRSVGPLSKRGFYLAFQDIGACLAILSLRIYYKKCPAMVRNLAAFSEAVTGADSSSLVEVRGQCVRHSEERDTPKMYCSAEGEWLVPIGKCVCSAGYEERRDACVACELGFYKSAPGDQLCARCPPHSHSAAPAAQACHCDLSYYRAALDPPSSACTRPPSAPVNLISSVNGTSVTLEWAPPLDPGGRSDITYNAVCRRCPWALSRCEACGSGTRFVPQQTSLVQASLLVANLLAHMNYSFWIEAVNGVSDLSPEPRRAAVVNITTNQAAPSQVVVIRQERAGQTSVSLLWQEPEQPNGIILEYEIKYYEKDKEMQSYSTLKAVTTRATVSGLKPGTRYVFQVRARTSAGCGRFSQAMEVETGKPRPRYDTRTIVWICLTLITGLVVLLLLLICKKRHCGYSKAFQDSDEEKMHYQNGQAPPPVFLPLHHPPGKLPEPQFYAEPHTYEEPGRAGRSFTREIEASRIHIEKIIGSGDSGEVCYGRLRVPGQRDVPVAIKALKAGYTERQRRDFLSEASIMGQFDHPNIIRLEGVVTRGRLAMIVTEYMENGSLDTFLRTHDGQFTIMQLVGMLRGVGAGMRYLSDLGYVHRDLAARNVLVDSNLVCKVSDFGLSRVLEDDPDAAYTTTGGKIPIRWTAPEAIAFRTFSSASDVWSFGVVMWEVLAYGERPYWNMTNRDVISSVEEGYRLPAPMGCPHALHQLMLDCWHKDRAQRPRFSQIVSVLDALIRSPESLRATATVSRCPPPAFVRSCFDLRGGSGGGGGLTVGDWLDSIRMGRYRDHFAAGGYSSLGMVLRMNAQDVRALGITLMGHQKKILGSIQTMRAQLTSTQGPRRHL

[8] = molecular target: Ribosomal protein S6 kinase alpha-2 (Homo sapiens) (UniProt Q15349); assay: Inhibition of recombinant full length human Rsk3 assessed as residual activity at 10 uM using KKKNRTLSVA as substrate incubated for 40 mins in presence of [gamma33P]ATP by scintillation counting based radiometry assay relative to control
[9] = molecular target: Serine/threonine-protein kinase WNK2 (Homo sapiens) (UniProt Q9Y3S1); assay: Inhibition of recombinant human WNK2 (166 to 489 residues) assessed as residual activity at 10 uM using myelin basic protein as substrate incubated for 40 mins in presence of [gamma33P]ATP by scintillation counting based radiometry assay relative to control
[10] = molecular target: Wee1-like protein kinase (Homo sapiens) (UniProt P30291); assay: Inhibition of recombinant human WEE1 (214 to end residues) assessed as residual activity at 10 uM using LSNLYHQGKFLQTFCGSPLYRRR as substrate incubated for 40 mins in presence of [gamma33P]ATP by scintillation counting based radiometry assay relative to control
[11] = molecular target: Serine/threonine-protein kinase MRCK alpha (Homo sapiens) (UniProt Q5VT25); assay: Inhibition of recombinant human MRCKalpha (1 to 473 residues) assessed as residual activity at 10 uM using KKRNRTLTV as substrate incubated for 40 mins in presence of [gamma-33ATP by scintillation counting based radiometry assay relative to control
[12] = test system: Proto-oncogene tyrosine-protein kinase receptor Ret (Homo sapiens), P07949 [V804L]; assay: Inhibition of recombinant human Ret V804L mutant (658 to end residues) assessed as residual activity at 10 uM using KKKSPGEYVNIEFG as substrate incubated for 40 mins in presence of [gamma33P]ATP by scintillation counting based radiometry assay relative to control
[13] = molecular target: Dual specificity protein kinase CLK3 (Homo sapiens) (UniProt P49761); assay: Inhibition of recombinant full length human CLK3 assessed as residual activity at 10 uM using ERMRPRKRQGSVRRRV as substrate incubated 40 mins in presence of [gamma-33ATP] by scintillation counting based radiometry assay relative to control
[14] = molecular target: Insulin receptor-related protein (Homo sapiens) (UniProt P14616); assay: Inhibition of human IRR (943 to 1266 residues) assessed as residual activity at 10 uM using myelin basic protein as substrate after 40 mins by [gamma-33ATP] radiometric assay relative to control
Insulin receptor-related protein (Homo sapiens), sequence (P14616 27-742 limits assumed): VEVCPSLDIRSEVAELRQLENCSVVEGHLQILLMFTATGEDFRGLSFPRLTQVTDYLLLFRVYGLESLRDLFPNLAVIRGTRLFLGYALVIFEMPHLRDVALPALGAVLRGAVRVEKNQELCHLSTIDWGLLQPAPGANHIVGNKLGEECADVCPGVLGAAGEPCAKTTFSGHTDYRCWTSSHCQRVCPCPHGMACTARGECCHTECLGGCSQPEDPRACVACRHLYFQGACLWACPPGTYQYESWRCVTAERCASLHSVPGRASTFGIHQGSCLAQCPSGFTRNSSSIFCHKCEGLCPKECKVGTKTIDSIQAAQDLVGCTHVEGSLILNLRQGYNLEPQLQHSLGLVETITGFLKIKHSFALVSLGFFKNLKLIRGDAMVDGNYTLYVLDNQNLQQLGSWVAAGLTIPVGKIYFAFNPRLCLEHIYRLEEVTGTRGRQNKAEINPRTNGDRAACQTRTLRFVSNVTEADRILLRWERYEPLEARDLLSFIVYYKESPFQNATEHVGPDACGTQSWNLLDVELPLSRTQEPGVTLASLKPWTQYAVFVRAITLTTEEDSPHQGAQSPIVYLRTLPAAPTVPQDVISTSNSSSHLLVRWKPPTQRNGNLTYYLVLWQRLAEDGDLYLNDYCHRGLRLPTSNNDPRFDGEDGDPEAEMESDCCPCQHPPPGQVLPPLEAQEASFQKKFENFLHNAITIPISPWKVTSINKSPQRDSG
Insulin receptor-related protein (Homo sapiens), sequence (P14616 747-1297 limits assumed): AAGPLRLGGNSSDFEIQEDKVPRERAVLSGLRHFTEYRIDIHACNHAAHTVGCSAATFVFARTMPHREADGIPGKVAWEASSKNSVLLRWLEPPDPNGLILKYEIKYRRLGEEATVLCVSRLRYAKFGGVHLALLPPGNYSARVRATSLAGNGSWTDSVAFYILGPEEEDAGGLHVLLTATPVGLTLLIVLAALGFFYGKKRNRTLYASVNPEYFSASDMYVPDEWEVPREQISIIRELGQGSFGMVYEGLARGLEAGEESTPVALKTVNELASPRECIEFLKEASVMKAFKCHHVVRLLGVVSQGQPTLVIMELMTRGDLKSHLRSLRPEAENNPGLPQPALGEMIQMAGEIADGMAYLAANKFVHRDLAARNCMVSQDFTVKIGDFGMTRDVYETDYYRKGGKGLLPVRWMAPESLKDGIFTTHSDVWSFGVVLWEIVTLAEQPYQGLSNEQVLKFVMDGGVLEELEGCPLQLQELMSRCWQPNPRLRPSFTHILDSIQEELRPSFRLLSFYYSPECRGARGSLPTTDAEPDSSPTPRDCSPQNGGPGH

[15] = molecular target: Aurora kinase B (Homo sapiens) (UniProt Q96GD4); assay: Inhibition of recombinant full length human Aurora B assessed as residual activity at 10 uM using AKRRRLSSLRA as substrate incubated for 40 mins in presence of [gamma-33ATP] by scintillation counting based radiometry assay relative to control
Aurora kinase B (Homo sapiens), sequence (Q96GD4 whole entry): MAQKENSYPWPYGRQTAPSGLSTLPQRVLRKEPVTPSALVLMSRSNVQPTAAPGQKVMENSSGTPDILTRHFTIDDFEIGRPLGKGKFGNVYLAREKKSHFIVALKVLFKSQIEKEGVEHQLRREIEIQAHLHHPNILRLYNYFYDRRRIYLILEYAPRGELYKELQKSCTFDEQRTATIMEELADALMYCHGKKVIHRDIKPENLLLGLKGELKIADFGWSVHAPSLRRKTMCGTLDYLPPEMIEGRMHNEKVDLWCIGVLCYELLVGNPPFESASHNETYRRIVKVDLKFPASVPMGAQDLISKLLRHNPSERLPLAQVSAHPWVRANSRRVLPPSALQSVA

[16] = molecular target: Leukocyte tyrosine kinase receptor (Homo sapiens) (UniProt P29376); assay: Inhibition of recombinant human LTK (450 to end residues) assessed as residual activity at 10 uM using GEEPLYWSFPAKK as substrate after 40 mins in presence of [gamma-33ATP] by scintillation counting based radiometry assay relative to control
[17] = test system: Mast/stem cell growth factor receptor Kit (Homo sapiens), P10721 [V560G]; assay: Inhibition of recombinant human C-Kit V560G mutant (544 to end residues) assessed as residual activity at 10 uM poly(Glu, Tyr) 4:1 as substrate incubated 40 mins in presence of [gamma-33ATP] by scintillation counting based radiometry assay relative to control
Mus musculus = organism: Mus musculus; assay: Inhibition of recombinant full length mouse PI3K p110/p85 assessed as residual activity at 10 uM using phosphatidylinositol-4, 5-bisphosphate as substrate incubated for 40 mins in presence of [gamma33P]ATP by scintillation counting based radiometry assay relative to control
[18] = molecular target: Transcription initiation factor TFIID subunit 1-like (Homo sapiens) (UniProt Q8IZX4); assay: Inhibition of recombinant human TAF1L (1428 to end residues) assessed as residual activity at 10 uM using RRRFRPASPLRGPPK as substrate incubated for 40 mins in presence of [gamma33P]ATP by scintillation counting based radiometry assay relative to control
[19] = molecular target: Serine/threonine-protein kinase 3 (Homo sapiens, UniProt Q13188); assay: Inhibition of recombinant human MST2 (2 to end residues) assessed as residual activity using myelin basic protein as substrate measured after 40 mins in presence of [gamma33P]ATP by scintillation counting based radiometry assay
[20] = molecular target: Mitogen-activated protein kinase kinase kinase 11 (Homo sapiens) (UniProt Q16584); assay: Inhibition of recombinant human MLK3 assessed as residual activity at 10 uM using by scintillation counting based radiometry assay relative to control
Mitogen-activated protein kinase kinase kinase 11 (Homo sapiens), sequence (Q16584 whole entry, looked up): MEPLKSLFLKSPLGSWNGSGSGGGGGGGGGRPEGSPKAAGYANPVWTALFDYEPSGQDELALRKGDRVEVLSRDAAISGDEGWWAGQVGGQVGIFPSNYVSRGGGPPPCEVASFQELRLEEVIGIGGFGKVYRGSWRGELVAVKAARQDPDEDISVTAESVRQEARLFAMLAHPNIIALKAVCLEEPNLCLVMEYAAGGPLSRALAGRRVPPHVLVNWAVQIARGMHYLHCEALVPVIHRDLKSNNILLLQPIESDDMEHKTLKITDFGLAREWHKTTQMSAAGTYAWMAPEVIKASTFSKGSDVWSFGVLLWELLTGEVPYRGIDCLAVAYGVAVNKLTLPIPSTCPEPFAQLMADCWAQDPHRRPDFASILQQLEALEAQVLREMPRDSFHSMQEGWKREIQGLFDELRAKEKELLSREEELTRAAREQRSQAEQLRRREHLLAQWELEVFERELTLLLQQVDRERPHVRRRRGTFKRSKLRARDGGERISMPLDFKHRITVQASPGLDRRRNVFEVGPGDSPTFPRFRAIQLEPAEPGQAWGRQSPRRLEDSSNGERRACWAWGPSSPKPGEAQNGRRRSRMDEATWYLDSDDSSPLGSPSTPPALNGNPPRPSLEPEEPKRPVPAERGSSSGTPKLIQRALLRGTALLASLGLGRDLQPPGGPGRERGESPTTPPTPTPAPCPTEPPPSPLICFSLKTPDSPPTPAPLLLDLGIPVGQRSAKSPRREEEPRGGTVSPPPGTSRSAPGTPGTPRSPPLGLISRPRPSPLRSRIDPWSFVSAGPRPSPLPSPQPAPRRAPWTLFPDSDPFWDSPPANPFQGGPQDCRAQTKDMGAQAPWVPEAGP

C[C@@H](c1ccccc1)n1nnc2cnc3ccc(-c4cnc5[nH]ccc5c4)cc3c21
Activity [1]: 60% | Activity [2]: 73% | Activity [3]: 98% | Activity [4]: 61% | Activity [5]: 80% | Activity [6]: 89% | Activity [7]: 73% | Activity [8]: 93% | Activity [9]: 85% | Activity [10]: 101% | Activity [11]: 105% | Activity [12]: 90% | Activity [13]: 66% | Activity [14]: 86% | Activity [15]: 34% | Activity [16]: 39% | Activity [17]: 3% | Activity (Mus musculus): 4 to 12% | Activity [18]: 85% | IC50 [19]: > 10 µM | Activity [20]: 73%
